From the supplement of paper PMC10307832

How the values were obtained:
Test in all cases: relative viability (nuclei count vs DMSO), 5 days (fraction); higher = more cells survive
TPCA-1 + Navitoclax = compound: C1=CC(=CC=C1C2=CC(=C(S2)NC(=O)N)C(=O)N)F [TPCA-1] + CC1(C)CCC(c2ccc(Cl)cc2)=C(CN2CCN(c3ccc(C(=O)NS(=O)(=O)c4ccc(N[C@H](CCN5CCOCC5)CSc5ccccc5)c(S(=O)(=O)C(F)(F)F)c4)cc3)CC2)C1 [Navitoclax] (partner 0.5 µM)
Procedure, shortened: (§1)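 Relative viability is defined as nuclei in treated wells over nuclei in vehicle wells. Duplicate plates were run and medians reported. Lung cancer cell lines in 1536-well plates were dosed by pin tool one day after seeding, with one drug or with a fixed anchor-drug dose plus five library-drug doses (not always all listed) in √10 steps, and nuclei were counted after 5 days.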

[1] = compound: C[C@]12O[C@H](C[C@]1(O)CO)n1c3ccccc3c3c4c(c5c6ccccc6n2c5c31)CNC4=O [Lestaurtinib] + CCNC(=O)c1noc(-c2cc(C(C)C)c(O)cc2O)c1-c1ccc(CN2CCOCC2)cc1 [Luminespib] (partner 0.01 µM)
Procedure, shortened: as §1

[2] = compound: C[C@]12O[C@H](C[C@]1(O)CO)n1c3ccccc3c3c4c(c5c6ccccc6n2c5c31)CNC4=O [Lestaurtinib] + CC(=O)c1c(C)c2cnc(Nc3ccc(N4CCNCC4)cn3)nc2n(C2CCCC2)c1=O [Palbociclib] (partner 0.5 µM)
Procedure, shortened: as §1

Lestaurtinib + Lapatinib = compound: C[C@]12O[C@H](C[C@]1(O)CO)n1c3ccccc3c3c4c(c5c6ccccc6n2c5c31)CNC4=O [Lestaurtinib] + CS(=O)(=O)CCNCc1ccc(-c2ccc3ncnc(Nc4ccc(OCc5cccc(F)c5)c(Cl)c4)c3c2)o1 [Lapatinib] (partner 2 µM)
Procedure, shortened: as §1

| Cell Line | relative viability (TPCA-1 + Navitoclax; first compound 0.04 µM) | relative viability (TPCA-1 + Navitoclax; first compound 0.1265 µM) | relative viability (TPCA-1 + Navitoclax; first compound 0.4 µM) | relative viability (TPCA-1 + Navitoclax; first compound 1.265 µM) | relative viability (TPCA-1 + Navitoclax; first compound 4 µM) | relative viability ([1]; first compound 0.005 µM) | relative viability ([1]; first compound 0.01581 µM) | relative viability ([1]; first compound 0.05 µM) | relative viability ([1]; first compound 0.1581 µM) | relative viability ([1]; first compound 0.5 µM) | relative viability ([2]; first compound 0.005 µM) | relative viability ([2]; first compound 0.01581 µM) | relative viability ([2]; first compound 0.05 µM) | relative viability ([2]; first compound 0.1581 µM) | relative viability ([2]; first compound 0.5 µM) | relative viability (Lestaurtinib + Lapatinib; first compound 0.005 µM) | relative viability (Lestaurtinib + Lapatinib; first compound 0.01581 µM) | relative viability (Lestaurtinib + Lapatinib; first compound 0.05 µM) | relative viability (Lestaurtinib + Lapatinib; first compound 0.1581 µM) | relative viability (Lestaurtinib + Lapatinib; first compound 0.5 µM) |
| --- | --- | --- | --- | --- | --- | --- | --- | --- | --- | --- | --- | --- | --- | --- | --- | --- | --- | --- | --- | --- |
| NCI-H1666 | 1.12 | 0.848 | 1.03 | 0.943 | 1.05 | 1.05 | 1.14 | 1.46 | 0.959 | 0.609 | 0.705 | 0.704 | 0.638 | 0.74 | 0.646 | 0.732 | 1.2 | 0.51 | 0.556 | 0.277 |
| NCI-H1734 | 0.893 | 0.759 | 0.871 | 0.779 | 0.697 | 0.2 | 0.0895 | 0.185 | 0.159 | 0.155 | 0.352 | 0.255 | 0.338 | 0.331 | 0.197 | 1.09 | 1.22 | 0.808 | 0.895 | 0.199 |
| NCI-H1755 | 0.998 | 0.95 | 0.949 | 0.847 | 0.696 | 0.41 | 0.42 | 0.453 | 0.211 | 0.204 | 0.446 | 0.427 | 0.464 | 0.376 | 0.382 | 1.01 | 1.1 | 0.907 | 0.39 | 0.232 |
| NCI-H1792 | 0.714 | 0.622 | 0.677 | 0.621 | 0.279 |  | 0.618 | 0.332 | 0.464 | 0.158 | 0.976 | 0.734 | 0.491 | 0.768 | 0.366 | 0.779 | 1.05 | 0.56 | 0.653 | 0.244 |
| NCI-H1793 | 0.425 | 0.354 | 0.413 | 0.342 | 0.319 | 0.193 | 0.249 | 0.156 | 0.154 | 0.161 | 0.333 | 0.36 | 0.324 | 0.335 | 0.26 | 0.927 | 0.907 | 0.467 | 0.441 | 0.235 |
| NCI-H1915 | 0.788 | 0.733 | 0.783 | 0.771 | 0.694 | 0.766 | 0.893 | 0.471 | 0.663 | 0.259 | 0.564 | 0.719 | 0.481 | 0.323 | 0.231 | 0.971 | 1.12 | 0.922 | 0.82 | 0.294 |
| NCI-H1944 | 1.07 | 0.949 | 1.06 | 0.921 | 0.823 | 0.716 | 0.784 | 0.773 | 0.54 | 0.302 | 0.334 | 0.332 | 0.286 | 0.248 | 0.292 | 0.924 | 0.733 | 0.691 | 0.58 | 0.571 |
| NCI-H1975 | 1.16 | 1.02 | 1.1 | 0.904 | 0.782 | 0.538 | 0.171 | 0.199 | 0.137 | 0.159 | 0.617 | 0.632 | 0.406 | 0.347 | 0.25 | 0.902 | 0.812 | 0.475 | 0.422 | 0.155 |
| NCI-H1993 | 1.01 |  | 0.794 | 0.756 | 0.809 | 0.692 | 0.442 | 0.831 | 0.523 | 0.569 | 0.689 | 0.27 | 0.717 | 0.569 | 0.411 | 0.805 | 0.848 | 0.678 | 0.595 | 0.602 |
| NCI-H2009 | 1.2 | 1.18 | 1.08 | 1.19 | 1.12 | 1.13 | 1.08 | 0.993 | 0.858 | 0.637 | 0.221 | 0.226 | 0.183 | 0.194 | 0.133 | 0.959 | 0.942 | 0.807 | 0.755 | 0.15 |
| NCI-H2023 | 1.14 | 0.98 | 1.04 | 0.938 | 0.912 | 0.848 | 0.983 | 0.48 | 0.524 | 0.119 | 0.402 | 0.316 | 0.384 | 0.261 | 0.121 | 0.987 | 0.753 | 0.503 | 0.22 | 0.0798 |
| NCI-H2085 | 1.14 | 1.1 | 1.2 | 1.12 | 1.13 | 0.436 | 0.449 | 0.57 | 0.41 | 0.337 | 0.445 | 0.489 | 0.471 | 0.463 | 0.475 | 0.812 | 0.89 | 0.871 | 0.667 | 0.433 |
| NCI-H2087 | 1.02 | 0.818 | 0.936 | 0.791 | 0.356 | 0.158 | 0.253 | 0.163 | 0.148 | 0.165 | 0.167 | 0.252 | 0.167 | 0.17 | 0.207 | 1.31 | 1.05 | 0.858 | 0.693 | 0.205 |
| NCI-H2126 | 0.866 | 0.791 | 0.899 | 0.812 | 0.767 | 0.944 | 0.891 | 0.776 | 0.817 | 0.538 | 0.339 | 0.372 | 0.388 | 0.357 | 0.339 | 0.821 | 0.901 | 0.613 | 0.81 | 0.552 |
| NCI-H2170 | 0.666 | 0.52 | 0.497 | 0.559 | 0.264 | 0.501 | 0.519 | 0.593 | 0.383 | 0.266 | 0.325 | 0.379 | 0.275 | 0.394 | 0.218 | 0.267 | 0.248 | 0.273 | 0.238 | 0.201 |
| NCI-H2228 | 0.758 | 0.68 | 1.18 | 0.656 | 0.595 | 0.185 | 0.144 | 0.137 | 0.123 | 0.109 | 1.03 | 1.05 | 0.407 | 0.28 | 0.275 | 0.892 | 0.95 | 0.376 | 0.281 | 0.256 |
